Reference: patent US20250276994A1, “CAP ANALOG FOR THE 5'-END OF EUKARYOTIC MESSENGER RNAS” (WESTFÄLISCHE WILHELMS-UNIVERSITÄT, priority 2021, published 2025)

Assay: Irradiation of photocleavable 5′-cap analogs, LC-MS (triple quad)
Format: physicochemical
Conditions: 30 seconds, 365 nm (3 W)
Experimental: For determination of mass spectra, HPLC—triple-quadrupole mass spectrometry system was used. The system consists of Agilent 1260 Infinity II with dual λ absorbance detector (G7114A) HPLC part and Agilent Ultivo mass spectrometer with JetStream ion source (type of ESI). Column which was used: Agilent Poroshell 120 EC-C18 (3.0×150/2.7 μm). The polar compounds were tested by LC method (eluent 20 mM NH40Ac buffer (pH=6)/CH3CN, gradient 0-30%, column temperature=20° C.).
Samples of the photocleavable 5′-cap analog of formula (22) were irradiated for 30 seconds with 365 nm (3 W).

Q: Which “uncaging of the cap after irradiation (LC-MS)” value does the source give for `COc1cc(COC(=O)Nc2nc3c(c(=O)[nH]2)[n+](C)cn3[C@@H]2O[C@H](COP(=O)(O)CP(=O)(O)OP(=O)(O)OC[C@H]3O[C@@H](n4cnc5c(=O)[nH]c(N)nc54)C(O)C3O)C(O)C2O)c([N+](=O)[O-])cc1OC` (stereo partly shown) [compound 12, P1-(N^2-(4,5-Dimethoxy-2-nitrobenzyl)oxycarbonyl-7-methylguanosin-5′-yl)-P3-guanosin-5′-yl 1,2-methylenetriphosphate] here?
A: partially uncaged
